2 compounds from patent publication US12178838B2, “Synthetic neuromodulatory peptides” (Lactocore, Inc., priority 2019, dated 2024) can be followed below.

The target of data set [1] is hippocampal NMDA receptors. In words: Radioligand analysis of NMDA receptors with [3H] (+) MK-801. In kind it is binding, rat. To be noted: [3H] (+) MK-801, room temperature, 2 hours; read-out: IC50 of displacement curve. From the text:
Hippocampal plasma membranes were isolated using modified methods (Zhou et al. (1997). (2S,4R)-4-methylglutamic acid (SYM 2081): a selective, high-affinity ligand for kainate receptors. J. Pharmacol. Exp. Ther., 280(1), 422-427, LePage et al. (2005). Differential binding properties of [^3H] dextrorphan and [^3H] MK-801 in heterologously expressed NMDA receptors. Neuropharmacol., 49(1), 1-16). After decapitation, the tissue was immediately frozen in liquid nitrogen and stored in a low-temperature refrigerator at −80° C. On the day of the experiment, the hippocampi were homogenized “Teflon-glass” in a Potter homogenizer in 10 volumes of buffer No. 1 (5 mM HEPES, 4.5 mM Tris, 0.32 M Sucrose, pH 7.6). The homogenate was diluted with 50 volumes of buffer No. 2 (5 mM HEPES, 4.5 mM Tris, pH 7.6) and centrifuged at 1000 g for 10 minutes on an Optima L-70K ultracentrifuge (Beckman Coulter). The supernatant was […] and centrifuged again at 25000 g for 20 minutes. To increase the protein yield, this operation was performed twice. The resulting precipitate was resuspended in 50 volumes of buffer No. 2 and centrifuged at 8000 g for 20 minutes. […]
The IC50 value with respect to the binding of labeled ligands was determined by adding 50 μl of the test compounds to the incubation medium at final concentrations of 10^−10-10^−4 M. The volume of the incubation mixture was 500 μl. […]

For data set [2], the system named is benzodiazepine site of GABAA receptors. As to the method:
The incubation mixture (final volume 0.5 ml) contained 50 μl of […]

Details of data set [3]: species or system rats. The following applies: rat, in vivo. As to the method: Tritium-labeled peptide FQSE (SEQ ID NO:10) was administered intranasally (i.n.) at a dose of 500 μg/kg diluted in saline. The administered sample contained 2000 pKi of tritium-labeled peptide [^3H] FQSE (SEQ ID NO:10). In 6 minutes after the administration, test samples of brain, blood and urine were obtained.
The study was carried out using tritium-labeled peptide FQSE (SEQ ID NO:10). For that, rats were administered with 2000 pKi [^3H] FQSE (SEQ ID NO:10) in dose 500 μg/kg (about 150 μg). The solutions administered to animals were prepared using saline solution. The volume of the solution for intranasal administration was 20 μl for rats.
In rat experiments, product FQSE (SEQ ID NO:10) was administered as a single, bolus, intranasal injection. Preliminarily, rats were anesthetized with chloral hydrate (300 mg/kg), and in 10 min, product FQSE (SEQ ID NO:10) was administered in volume 20 μl, in dose 500 μg/kg which contained 2000 pKi of labeled peptide [^3H]FQSE (SEQ ID NO:10). Rats were decapitated in 6 minutes after the product administration. […]
The quantitative analysis of peptides was performed with HPLC on column Kromasil C18, 4×150 mm in methanol gradient (0-40%), presence of 0.08% TEA and 0.02% HBA (heptafluorobutyric acid). The fractions containing peptide FQSE (SEQ ID NO:10) were collected, and their radioactivity was determined with liquid scintillation counting.

As a reminder, the IC50 is the concentration that gives 50% inhibition.

Molecules are shown by their SMILES. Read-outs that look alike come from different tables or passages of the source. Residues, ends and D or L forms follow the SMILES beside them.

On to `C[C@]12N[C@H](Cc3ccccc31)c1ccccc12` [MK-801], for which the IC50 in data set [1] stood at 7 nM.

Regarding `NC(=O)CC[C@H](NC(=O)[C@@H](N)Cc1ccccc1)C(=O)N[C@@H](CO)C(=O)N[C@@H](CCC(=O)O)C(=O)O` [FQSE] (H-FQSE-OH), the “Specific binding of [3H]-Flunitrazepam, relative to control levels” value in data set [2] (Diazepam 10^−6M + FQSE 10^−4M, 25 min pre-incubation + 30 min incubation, 4° C.) was 101.07%; in data set [2] (Diazepam 10^−6M + FQSE 10^−4M, 25 min pre-incubation + 30 min incubation, 24° C.), 100.58%; in data set [2] (Diazepam 10^−6M + FQSE 10^−4M, 30 min incubation, 4° C.) it was 100.27%; in data set [2] (Diazepam 10^−6M + FQSE 10^−4M, 30 min incubation, 24° C.), 100.95%; in data set [2] (Diazepam 10^−6M + FQSE 10^−5M, 25 min pre-incubation + 30 min incubation, 4° C.), 101.07%; in data set [2] (Diazepam 10^−6M + FQSE 10^−5M, 25 min pre-incubation + 30 min incubation, 24° C.) it was 99.78%. Besides, the “Specific binding of [3H]-Flunitrazepam, relative to control levels” value in data set [2] (Diazepam 10^−6M + FQSE 10^−5M, 30 min incubation, 4° C.) was 100.04%; in data set [2] (Diazepam 10^−6M + FQSE 10^−5M, 30 min incubation, 24° C.), 100.70%. Moreover, the blood-brain barrier penetration result in data set [3] was “can penetrate blood-brain barrier”.
